# Laboratory results taken from patent US20100204202A1, “DRUG FOR ALLEVIATING MOTOR COMPLICATIONS OR PSYCHIATRIC SYMPTOMS OF PARKINSON'S DISEASE” (Asubio Pharma Co., Ltd., priority 2007, published 2010).
# “Also recorded” adds a separate entry of the source. Structures can show the parent of a compound that is named as a salt. Where two headings read alike, the source gives them in different places.
# Experiments:
# [1] = target: T1, human serotonin 1A receptors (Homo sapiens, UniProt P08908); assay: Binding affinity test on human serotonin 1A receptors ([3H]8-OH-DPAT, CHO-K1 membranes); settings: for Ki: Serotonin 1A; for binding affinity (in words): human serotonin 1A receptors
# T1 construct: expressed in transfected cells; host or cells: CHO-K1
# T1 sequence (P08908 1-422): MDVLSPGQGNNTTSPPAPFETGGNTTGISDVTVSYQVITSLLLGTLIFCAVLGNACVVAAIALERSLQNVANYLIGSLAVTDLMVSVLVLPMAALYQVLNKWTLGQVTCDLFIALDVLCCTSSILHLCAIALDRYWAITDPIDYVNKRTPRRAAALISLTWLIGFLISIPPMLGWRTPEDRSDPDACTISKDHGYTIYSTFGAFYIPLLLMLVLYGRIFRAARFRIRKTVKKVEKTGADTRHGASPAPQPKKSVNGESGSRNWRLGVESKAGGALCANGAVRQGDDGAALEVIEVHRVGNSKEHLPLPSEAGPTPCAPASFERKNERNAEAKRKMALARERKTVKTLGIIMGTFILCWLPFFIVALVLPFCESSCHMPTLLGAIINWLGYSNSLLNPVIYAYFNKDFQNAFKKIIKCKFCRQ
# Protocol: For the test, membrane specimens prepared from Chinese hamster ovary (CHO-K1) cells expressing human serotonin 1A receptors were used. To a 50 mM Tris-HCl buffer (pH 7.4) including 5 mM CaCl2, 0.1% ascorbic acid, and 10 μg/mL saponin, [^3H] […] The reaction solution was allowed to react at 25° C. for 60 minutes, then the reaction solution was filtered with a cell harvester, the filtered filter paper was transferred to a measurement vial, a liquid scintillator was added and the receptor bond radioactivity remaining on the filter paper was determined by a liquid scintillation counter. The nonspecific bonds were defined as the amount of bonds in the presence of 10 μM serotonin.
# The following formula was used to calculate the binding inhibition rate: […]
# Furthermore, the inhibition constant (Ki) was calculated.
# [2] = target: T2, human dopamine D2L receptors (Homo sapiens, UniProt P14416); assay: Binding affinity test on human dopamine D2L receptors ([3H]spiperone, CHO membranes); settings: for Ki: Dopamine D2L; for binding affinity (in words): human dopamine D2L receptors
# T2 construct: expressed in transfected cells; host or cells: CHO
# Protocol: For the test, membrane specimens prepared from Chinese hamster ovary (CHO) cells expressing human dopamine D2L receptors were used. To a 50 mM Tris-HCl (pH 7.4) buffer containing 1.4 mM ascorbic acid, 0.001% BSA, and 150 mM NaCl, [^3H] spiperone (final concentration 0.16 nM), the test sample solution and a membrane specimen were added. The reaction solution was allowed to react at 25° C. for 2 hours, then the reaction solution was filtered with a cell harvester, the filtered filter paper was transferred to a measurement vial, a liquid scintillator was added and the receptor bond radioactivity remaining on the filter paper was determined by a liquid scintillation counter. The nonspecific bonds were defined as the amount of bonds in the presence of 10 μM haloperidol.
# The following formula was used to calculate the binding inhibition rate:
# [amount of [^3H] spiperone bonds in the presence of 10 μM haloperidol]}/{[amount of [^3H] spiperone bonds in the absence of test sample]−[amount of [^3H] spiperone bonds in the presence of 10 μM haloperidol]}
# From the binding inhibition rate, a regression formula was used to calculate the 50% inhibition concentration. Furthermore, the inhibition constant (Ki) was calculated.
# [3] = target: T3, human dopamine D3 receptors (Homo sapiens, UniProt P35462); assay: Agonist/antagonist assay, [35S]GTPgammaS binding, human dopamine D3 receptors; assay type: biochemical; settings: for agonist activity (in words) / antagonist activity (in words): human dopamine D3 receptors
# T3 construct: expressed in transfected cells; host or cells: CHO
# Protocol: (§1) For the tests, membrane specimens prepared from Chinese hamster ovary (CHO-K1) cells expressing human serotonin 1A receptors, Chinese hamster ovary (CHO) cells expressing human dopamine D2L receptors, Chinese hamster ovary (CHO) cells expressing human dopamine D2S receptors and Chinese hamster ovary (CHO) cells expressing human dopamine D3 receptors were used. In the agonist assays, for the serotonin 1A receptors, [^35S] GTPγS (final concentration 0.1 nM), a GDP solution (final concentration 3 μM), the test sample solution and a membrane specimen were added to a 20 mM Hepes-NaOH buffer (pH 7.4) containing 100 mM NaCl, 3 mM MgCl2 and 10 μg/mL saponin and allowed to react at 25° C. for 30 minutes. Further, for the dopamine (D2L, D2S and D3) receptors, [^35S] GTPγS (i.e., final concentration 0.1 nM), a GDP solution (final concentration 3 μM), the test sample solution and a membrane specimen were added to a 20 mM Hepes-NaOH buffer (pH 7.4) containing 100 mM NaCl, 10 mM MgCl2, 1 mM DTT and 1 mM EDTA and allowed to react at 30° C. for 15 minutes (in the case of D2L receptors) or for 30 minutes (in the cases of D2S and D3 receptors). Further, in the antagonist assays, except for adding to the reaction solutions 10 μM 5-carboxamide tryptamine (5-CT) (in the case of serotonin 1A receptors), 3 μM dopamine (in the cases of D2L and D2S receptors), or 0.1 μM dopamine (in the case of D3 receptors), operations were performed similar to the agonistic tests. After the end of the reaction, the reaction solution was filtered with a cell harvester, the filtered filter paper was transferred to a measurement vial, a liquid scintillator was added, and the radioactivity of the [^35S] GTPγS remaining on the filter paper was determined by a liquid scintillation counter. The human serotonin 1A receptor and human dopamine (D2L, D2S, and D3) receptor agonist/antagonist activities of the test sample were expressed as the rates of increase, when making the increase in [^35S] GTPγS bonds due to 10 μM 5-CT (in the case of serotonin 1A receptors), 3 μM dopamine (in the cases of D2L and D2S receptors), or 0.1 μM dopamine (in the case of D3 receptors) 100%. From the bond increasing rate, a regression formula was used to calculate the 50% reaction concentration (EC50) and 50% inhibition concentration (IC50).
# [4] = target: T1, human serotonin 1A receptors; assay: Agonist/antagonist assay, [35S]GTPgammaS binding, human serotonin 1A receptors; assay type: biochemical; settings: for EC50 / Emax / IC50: Serotonin 1A; for agonist activity (in words): human serotonin 1A receptors
# Protocol: as §1
# [5] = target: T4, human dopamine D2S receptors (Homo sapiens, UniProt P14416); assay: Agonist/antagonist assay, [35S]GTPgammaS binding, human dopamine D2S receptors; assay type: biochemical; settings: for EC50 / Emax / IC50: Dopamine D2S; for antagonist activity (in words): human dopamine D2S receptors
# T4 construct: expressed in transfected cells; host or cells: CHO
# Protocol: as §1
# [6] = Dopamine D3, 0.1 μM dopamine = 100%, read-out: Agonist assay Emax
# [7] = Dopamine D3, read-out: Agonist assay EC50
# [8] = Dopamine D3, with 0.1 μM dopamine, read-out: Antagonist assay Emax
# [9] = Dopamine D3, with 0.1 μM dopamine, read-out: Antagonist assay IC50
# [10] = 10 μM 5-CT = 100%, read-out: Agonist assay Emax
# [11] = with 10 μM 5-CT, read-out: Antagonist assay Emax
# [12] = 3 μM dopamine = 100%, read-out: Agonist assay Emax
# [13] = with 3 μM dopamine, read-out: Antagonist assay Emax
# T3 sequence (P35462 whole entry): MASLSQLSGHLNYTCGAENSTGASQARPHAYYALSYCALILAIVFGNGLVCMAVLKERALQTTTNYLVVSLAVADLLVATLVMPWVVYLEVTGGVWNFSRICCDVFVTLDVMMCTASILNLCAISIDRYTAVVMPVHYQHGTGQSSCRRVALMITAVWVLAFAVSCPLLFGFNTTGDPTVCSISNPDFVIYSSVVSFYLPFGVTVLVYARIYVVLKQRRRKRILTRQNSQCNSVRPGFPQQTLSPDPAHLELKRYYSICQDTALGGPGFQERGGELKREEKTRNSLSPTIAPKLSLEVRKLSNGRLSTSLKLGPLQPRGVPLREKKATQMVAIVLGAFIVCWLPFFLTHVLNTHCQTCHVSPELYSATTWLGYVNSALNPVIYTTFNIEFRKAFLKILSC
# T4 sequence (P14416 1-414 isoform P14416-2): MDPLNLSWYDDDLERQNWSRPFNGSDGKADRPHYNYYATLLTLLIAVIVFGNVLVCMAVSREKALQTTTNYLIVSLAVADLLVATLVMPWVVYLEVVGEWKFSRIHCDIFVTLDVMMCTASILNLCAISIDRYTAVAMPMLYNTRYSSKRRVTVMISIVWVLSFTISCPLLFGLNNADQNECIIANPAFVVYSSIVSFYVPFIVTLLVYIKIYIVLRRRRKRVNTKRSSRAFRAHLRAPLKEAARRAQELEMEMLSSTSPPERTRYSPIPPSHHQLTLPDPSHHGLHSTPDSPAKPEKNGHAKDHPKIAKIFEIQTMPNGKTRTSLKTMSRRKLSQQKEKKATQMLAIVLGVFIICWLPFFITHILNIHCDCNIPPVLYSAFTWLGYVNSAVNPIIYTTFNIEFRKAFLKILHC
# T2 sequence (P14416 whole entry): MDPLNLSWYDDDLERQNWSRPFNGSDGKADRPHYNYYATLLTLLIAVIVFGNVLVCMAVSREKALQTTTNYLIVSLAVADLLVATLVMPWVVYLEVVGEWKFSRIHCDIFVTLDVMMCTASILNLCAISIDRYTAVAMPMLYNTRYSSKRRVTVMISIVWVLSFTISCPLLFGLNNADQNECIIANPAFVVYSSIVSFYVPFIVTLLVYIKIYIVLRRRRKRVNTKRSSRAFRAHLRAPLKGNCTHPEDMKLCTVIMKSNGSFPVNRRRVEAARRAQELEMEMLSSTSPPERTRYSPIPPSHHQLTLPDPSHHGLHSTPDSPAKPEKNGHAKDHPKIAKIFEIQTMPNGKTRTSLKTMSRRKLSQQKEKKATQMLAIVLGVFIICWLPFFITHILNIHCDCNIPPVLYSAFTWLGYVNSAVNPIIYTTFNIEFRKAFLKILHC
Ki [1],Ki [2],binding affinity (in words) [2],agonist activity (in words) [3],antagonist activity (in words) [3],EC50 [4],"Emax [4, 10]",IC50 ([4]; with 10 μM 5-CT),"Emax [4, 11]",EC50 [5],"Emax [5, 12]",IC50 ([5]; with 3 μM dopamine),"Emax [5, 13]",antagonist activity (in words) [5],SMILES,"Emax [3, 6]","EC50 [3, 7]","Emax [3, 8]","IC50 [3, 9]",binding affinity (in words) [1],agonist activity (in words) [4],other results
2.67 nM,5.42 nM,comparatively strong binding affinity,strong agonist activity,no antagonist activity was exhibited,108 nM,100%,> 20000 nM,14%,> 500 nM,27%,17.9 nM,69%,antagonist activity,"Cl.Cl.O=c1[nH]c2cccc(C3CCCN(Cc4cncc(-c5ccc(F)cc5)c4)C3)c2o1 (stereo not drawn) [7-(1-{[5-(4-fluorophenyl)pyridin-3-yl]methyl}piperidin-3-yl)-1,3-benzoxazol-2(3H)-one dihydrochloride]",69%,1.4 nM,22%,> 500 nM,,,
0.0293 nM,3.29 nM,comparatively strong binding affinity,did not exhibit an agonist activity,weak antagonist activity,2.4 nM,100%,> 100 nM,4%,> 500 nM,5%,66.7 nM,74%,antagonist activity,"Cl.Cl.Fc1ccc(-c2cncc(CNC[C@H]3CCc4ccccc4O3)c2)cc1 [Sarizotan, 1-[(2R)-3,4-dihydro-2H-chromen-2-yl]-N-{[5-(4-fluorophenyl)pyridin-3-yl]methyl}methanamine dihydrochloride]",,,,,particularly strong binding affinity,particularly strong in activity,EC50 [3]: > 500 nM; IC50 [3]: 181 nM; Emax ([3]; read-out: Agonist assay Emax): 14%; Emax ([3]; read-out: Antagonist assay Emax): 65%

SMILES,Ki [1],Ki [2],binding affinity (in words) [2],agonist activity (in words) [3],antagonist activity (in words) [3],EC50 [4],"Emax [4, 10]",IC50 ([4]; with 10 μM 5-CT),"Emax [4, 11]",EC50 [5],"Emax [5, 12]",IC50 ([5]; with 3 μM dopamine),"Emax [5, 13]",antagonist activity (in words) [5],"Emax [3, 6]","EC50 [3, 7]","Emax [3, 8]","IC50 [3, 9]",binding affinity (in words) [1],agonist activity (in words) [4],other results
"O=C1c2ccccc2OC=C(Cl)N1CCCCN1CC=C(c2ccccn2)CC1 [SUN N4057, 3-chloro-4,5-dihydro-4-{4-[4-(2-pyridyl)-1,2,3,6-tetrahydropyridin-1-yl]butyl}-1,4-benzoxazepin-5-one.dihydrochloride-dihydrate]",0.0249 nM,161 nM,,strong agonist activity; also recorded: has an agonist action,no antagonist activity was exhibited,2.41 nM,100%,> 100 nM,3%,> 500 nM,41%,> 500 nM,25%,does not have an antagonist action,77%,2.12 nM,13%,> 500 nM,particularly strong binding affinity,particularly strong in activity; also recorded: powerful agonist action,
